Test results published in patent US20230131899A1, “INHIBITORS OF MICROBIALLY INDUCED AMYLOID” (Axial Therapeutics, Inc., priority 2020, published 2023).
pIC50: −log10 of the molar value. Like-named read-outs stand apart in the source and are kept apart here.

Experiments:
E. coli CsgA = molecular target: T1, E. coli CsgA (Escherichia coli, UniProt P28307); assay: In vitro ThioflavinT assay of CsgA aggregation (CsgA ThT Assay); assay type: biochemical; details: 1005 minutes; for remaining activity at 25 µM / CsgA ThT Assay (10 μM CsgA) % Control AUC at 1005 minutes, 25 μM (activity range) / CsgA ThT Assay (10 μM CsgA) % Control AUC at 1005 minutes, 25 μM: compound 25 μM; for remaining activity at 100 µM / CsgA ThT Assay (10 μM CsgA) % Control AUC at 1005 minutes, 100 μM (activity range) / CsgA ThT Assay (10 μM CsgA) % Control AUC at 1005 minutes, 100 μM: compound 100 μM; for CsgA ThT Assay (10 μM CsgA) % Control AUC at 1005 minutes, 25 μM / CsgA ThT Assay (10 μM CsgA) % Control AUC at 1005 minutes, 100 μM: mean AUC as % of DMSO control
T1 construct: made in house; host or cells: E. coli NEB 3016 slyD::kan, pET11d
Experimental: In vitro ThioflavinT assay to determine effects of compounds on CsgA aggregation. To assess the effects of compounds on aggregation of E. coli CsgA, a cell-free assay was performed using purified CsgA and Thioflavin T. In the assay, histidine-tagged CsgA was over-expressed in E. coli NEB 3016 slyD::kan cells harboring a pET11d vector containing a C-terminal 6× His tag. Following growth in rich media, CsgA production is induced at an OD600 of approximately 1.0 by addition of 0.5 mM IPTG (isopropyl beta-D-1-thiogalactopyranoside) followed by incubation at 37° C. for 1-4 hours with shaking at 200-250 rpm. Bacteria were resuspended in 8 M guanidine hydrochloride in 50 mM potassium phosphate buffer, pH 7.3 and lysed by sonication on ice using three 20 second intervals. The resulting lysate was incubated on a platform rocker for 1 hour at room temperature. After centrifugation at 10,000×g for 20 minutes, the supernatant was further sonicated on ice for three 20 second intervals and then incubated with nickel-nitrilotriacetic acid resin (Sigma) at room temperature for 1 hour in a 50 mL conical tube on a platform rocker. The resin was washed and pelleted 5 times with 45 mL 8 M guanidine in 50 mM potassium phosphate buffer pH 7.3. The resin was further washed and pelleted two times with 8 M guanidine hydrochloride in 50 mM potassium phosphate buffer pH 7.3 containing 12.5 mM imidazole. Purified CsgA protein was eluted two times with 5 mL of 6-8 M guanidine hydrochloride in 50 mM potassium phosphate buffer, pH 7.3 containing 250 mM imidazole. The eluted protein was aliquoted with 150 μL per aliquot, snap frozen in liquid nitrogen, and stored at −80 C. In order to obtain monomeric CsgA, the purified CsgA protein was thawed and passed through two pre-chilled desalting columns (Zeba) to remove imidazole and guanidine. The buffer exchanged protein was loaded onto a 30-kDa centrifugal filter unit (Amicon) and spun for 30 minutes at 7500×g to remove dimers and other oligomers. Protein concentration was assessed by the NanoDrop technique (Thermo Scientific), as is familiar to one skilled in the art. The CsgA aggregation assay was conducted in 96-well black non-binding surface or white untreated microplates with 20-40 μM ThioflavinT, 50 mM potassium phosphate buffer pH 7.3, 1% DMSO, CsgA at 2-20 μM, and compounds at 3.125-200 uM. The vehicle control wells contain all components of the assay except test compounds and represent the level of CsgA aggregation in the absence of any inhibitor or accelerator. Plates were incubated at room temperature in a Tecan Nano F200 plate reader with excitation at 438 nm using a 439 nm filter with a bandwidth of 8 nm, and emission at 495 nm with a 490 nm filter with a bandwidth of 10 nm, or in a SpectraMax M5, SpectraMax M2 or SpectraMax® i3X (Molecular Devices, San Jose, Calif.) spectrophotometer with excitation at 438 nm and emission at 495 nm. During the assay, plates were shaken initially for 5 seconds and subsequently for 3 seconds prior to fluorescent readings. Readings were performed every 15 minutes for up to 1005 minutes. The effect of compounds on CsgA aggregation in the assay was determined with data from 0-17 hours. Fluorescence values for each compound with CsgA were first adjusted by subtracting the average fluorescence of the compound in the absence of CsgA or in the presence of CsgA and compound at time 0 or 15 minutes. The data were analyzed in several ways:
1. The adjusted ThT fluorescence values were normalized by dividing them by the average fluorescence in the vehicle control wells containing CsgA. The median normalized fluorescence from 6-6.5 hours or 8-9 hours with the compound was expressed as a percentage of the median fluorescence observed in vehicle controls over the same time period. Percent inhibition of CsgA aggregation by a compound was determined by subtracting the percent average fluorescence with the compound relative to the vehicle controls from 100%. […]

[1] = system: CsgA gene expression (csgBAC promoter-GFP reporter) in E. coli UTI89; assay: In vitro live cell fluorescent reporter assay of CsgA transcription (Reporter Assay); assay type: cell-based; details: for IC50: read-out: Reporter Assay Abs IC50 (μM), median Abs IC50 in the CsgA reporter assay
Experimental: In vitro live cell fluorescent reporter assay to determine effects of compounds on CsgA transcription. To assess the impact of compounds on CsgA gene expression, a live cell assay was performed using an engineered strain of E. coli UTI89 with a fluorescent CsgA gene expression reporter driven by the csgBAC promoter. In the reporter strain, a gene encoding Green Fluorescent Protein (GFP) was placed immediately downstream of the full intergenic region between csgDEF and csgBAC, containing the csgBAC promoter and other transcriptional regulatory elements, and inserted in single copy into the E. coli UTI89 chromosome, as described in Cegelski et. al., “Small-molecule inhibitors target Escherichia coli amyloid biogenesis and biofilm formation,” Nat. Chem. Bio., 25 Oct. 2009. With this construct, GFP expression in the reporter strain was under the same regulation as CsgA expression. The reporter strain was struck out on a YESCA agar plate (1 g/L yeast extract, 10 g/L casamino acids, 20 g/L Bacto Agar) and grown at about 27° C. for 2 days, or until single colonies were sufficiently large to pick. A single colony of the reporter strain was used to inoculate 5 mL of YESCA broth (1 g/L yeast extract, 10 g/L casamino acids), which was grown overnight at about 27° C. The inoculum was diluted 1:10 in YESCA broth and the optical density at 600 nm (OD600) was measured on a SpectraMax M2 or M5e (Molecular Devices, San Jose, Calif.) spectrophotometer in cuvettes. The culture was then further diluted to achieve a final OD600 of 0.003, which was confirmed by measurement of the OD600. Compounds were diluted in dimethyl sulfoxide (DMSO) and plated on black clear-bottomed tissue culture-treated 96-well plates with 1.5 μL/well for final test concentrations from 0.14-100 μM. All assay wells, including vehicle controls and positive controls for inhibition, included 1% DMSO final. Vehicle control wells consisted of DMSO and the reporter strain to assess the expression of the reporter strain in the assay in the absence of any compound. […] 148.5 μL culture at OD600 0.003 in YESCA broth was added to all wells for 150 μL final volume. Plates were incubated at 27° C. for 20 hours, then GFP fluorescence signal for each well was read on a Spectramax M2 or M5e plate reader with excitation at 485 nm, emission at 525 nm, and a cutoff at 515 nm. OD600 for each well was also measured on the Spectramax M2 or M5e plate reader. […] Background fluorescence was subtracted from all wells, then fluorescence signal for each well was normalized to the mean of the vehicle control wells. Normalized dose response curves were plotted for each compound, and compound inhibition of CsgA transcription was determined by assessing the curve-fit IC50, bottom, top, span (top-bottom), and Hill slope using GraphPad Prism software version 8.1.1 (GraphPad Software, San Diego, Calif.). An additional metric used to evaluate compounds was the concentration at which the curve reached 50% of the expression level of the vehicle control. This was written as a custom analysis in GraphPad Prism according to the formula X[50], or the X value at which Y=50, ie, the compound concentration at which fluorescence of the reporter strain was calculated to reach 50% of the vehicle control fluorescence. Separately from the fluorescence data, OD600 values were normalized to the mean of the vehicle control wells, and dose response curves were plotted for each compound. OD600 reduction of greater than 10% indicated compounds had some toxicity or negative impact on bacterial growth. […]

[2] = read-out: CsgA ThT Assay (10 μM CsgA) % Control AUC at 1005 minutes, 25 μM (activity range), CsgA 10 μM, black plates, class symbol
[3] = read-out: CsgA ThT Assay (10 μM CsgA) % Control AUC at 1005 minutes, 25 μM, mean AUC as % of DMSO control, CsgA 10 μM, black plates
[4] = read-out: CsgA ThT Assay (10 μM CsgA) % Control AUC at 1005 minutes, 100 μM (activity range), CsgA 10 μM, black plates, class symbol
[5] = read-out: CsgA ThT Assay (10 μM CsgA) % Control AUC at 1005 minutes, 100 μM, mean AUC as % of DMSO control, CsgA 10 μM, black plates
[6] = Escherichia coli, read-out: Reporter Assay Abs IC50 (activity range), median Abs IC50 in the CsgA reporter assay, class symbol
[7] = Escherichia coli, N/A = maximum expression reduction is <50% of control
[8] = CsgA 10 μM, black plates, class symbol
[9] = read-out: Reporter Assay Abs IC50 (activity range), median Abs IC50 in the CsgA reporter assay, class symbol
[10] = read-out: Reporter Assay Abs IC50, median Abs IC50 in the CsgA reporter assay, N/A = maximum expression reduction is <50% of control

T1 sequence (P28307 23-151): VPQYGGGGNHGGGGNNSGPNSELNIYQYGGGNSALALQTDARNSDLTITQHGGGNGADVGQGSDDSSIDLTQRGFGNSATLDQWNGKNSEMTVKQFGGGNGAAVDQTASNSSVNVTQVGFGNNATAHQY

## CCN1CC(C(=O)O)n2c(c(-c3cccc(C(F)(F)F)c3)c(Cc3cccc4ccccc34)cc2=O)S1(=O)=O (racemic) [Compound 015, 2-ethyl-8-(naphthalen-1-ylmethyl)-6-oxo-9-(3-(trifluoromethyl)phenyl)-3,4-dihydro-2H,6H-pyrido[1,2-e][1,2,5]thiadiazine-4-carboxylic acid 1,1-dioxide]
E. coli CsgA; [2]
  remaining activity at 25 µM: 11 to 31%
E. coli CsgA; [3]
  remaining activity at 25 µM: 28%
E. coli CsgA; [4]
  remaining activity at 100 µM: 11 to 31%
E. coli CsgA; [5]
  remaining activity at 100 µM: 27%
[1]; [6]
  pIC50: 5.00 to 5.34
[1]; [7]
  IC50: 8 µM

## O=C(O)C1CSc2c(-c3cccc(C(F)(F)F)c3)c(Cc3cccc4ccccc34)cc(=O)n21 (single isomer, unassigned) [Compound 011b, 7-(naphthalen-1-ylmethyl)-5-oxo-8-(3-(trifluoromethyl)phenyl)-2,3-dihydro-5H-thiazolo[3,2-a]pyridine-3-carboxylic acid]
E. coli CsgA; [8]
  CsgA ThT Assay (10 μM CsgA) % Control AUC at 1005 minutes, 25 μM (activity range): (++) (% control AUC of 31 to 60%)
  CsgA ThT Assay (10 μM CsgA) % Control AUC at 1005 minutes, 100 μM (activity range): (++) (% control AUC of 31 to 60%)
E. coli CsgA; CsgA 10 μM, black plates
  CsgA ThT Assay (10 μM CsgA) % Control AUC at 1005 minutes, 25 μM: 54%
  CsgA ThT Assay (10 μM CsgA) % Control AUC at 1005 minutes, 100 μM: 53%
[1]; [9]
  pIC50: 5.35 to 5.89
[1]; [10]
  pIC50: 5.39

## O=C(O)C1CS(=O)(=O)c2c(-c3cccc(C(F)(F)F)c3)c(Cc3cccc4ccccc34)cc(=S)n21 (single isomer, unassigned) [Compound 014b, 7-(naphthalen-1-ylmethyl)-5-thioxo-8-(3-(trifluoromethyl)phenyl)-2,3-dihydro-5H-thiazolo[3,2-a]pyridine-3-carboxylic acid 1,1-dioxide]
E. coli CsgA; [8]
  CsgA ThT Assay (10 μM CsgA) % Control AUC at 1005 minutes, 25 μM (activity range): (+) (% control AUC of greater than 60%)
  CsgA ThT Assay (10 μM CsgA) % Control AUC at 1005 minutes, 100 μM (activity range): (+++) (% control AUC of 11 to 31%)
E. coli CsgA; CsgA 10 μM, black plates
  CsgA ThT Assay (10 μM CsgA) % Control AUC at 1005 minutes, 25 μM: 71%
  CsgA ThT Assay (10 μM CsgA) % Control AUC at 1005 minutes, 100 μM: 26%
[1]; [6]
  pIC50: < 5.00
[1]; [7]
  IC50: 44 µM

## CCN1CC(C(=O)O)n2c(c(-c3cccc(C(F)(F)F)c3)c(Cc3cccc4ccccc34)cc2=O)S1(=O)=O (single isomer, unassigned) [Compound 015b, 2-ethyl-8-(naphthalen-1-ylmethyl)-6-oxo-9-(3-(trifluoromethyl)phenyl)-3,4-dihydro-2H,6H-pyrido[1,2-e][1,2,5]thiadiazine-4-carboxylic acid 1,1-dioxide]
E. coli CsgA; [8]
  CsgA ThT Assay (10 μM CsgA) % Control AUC at 1005 minutes, 25 μM (activity range): (+++) (% control AUC of 11 to 31%)
  CsgA ThT Assay (10 μM CsgA) % Control AUC at 1005 minutes, 100 μM (activity range): (+++) (% control AUC of 11 to 31%)
E. coli CsgA; CsgA 10 μM, black plates
  CsgA ThT Assay (10 μM CsgA) % Control AUC at 1005 minutes, 25 μM: 29%
  CsgA ThT Assay (10 μM CsgA) % Control AUC at 1005 minutes, 100 μM: 23%
[1]; [9]
  pIC50: < 5.00
[1]; [10]
  pIC50: 4.65

## CCCN1CC(C(=O)O)n2c(c(-c3cccc(C(F)(F)F)c3)c(Cc3cccc4ccccc34)cc2=O)S1(=O)=O (single isomer, unassigned) [Compound 016a, 8-(naphthalen-1-ylmethyl)-6-oxo-2-propyl-9-(3-(trifluoromethyl)phenyl)-3,4-dihydro-2H,6H-pyrido[1,2-e][1,2,5]thiadiazine-4-carboxylic acid 1,1-dioxide]
E. coli CsgA; [8]
  CsgA ThT Assay (10 μM CsgA) % Control AUC at 1005 minutes, 25 μM (activity range): (+++) (% control AUC of 11 to 31%)
E. coli CsgA; [3]
  remaining activity at 25 µM: 21%
E. coli CsgA; [4]
  remaining activity at 100 µM: 11 to 31%
E. coli CsgA; [5]
  remaining activity at 100 µM: 14%
[1]; [6]
  pIC50: 5.00 to 5.34
[1]; [7]
  IC50: 8.3 µM

## Nc1c(Cc2cccc3ccccc23)c(-c2cccc(C(F)(F)F)c2)c2n(c1=O)C(C(=O)O)CS2 (single isomer, unassigned) [Compound 020a, 6-amino-7-(naphthalen-1-ylmethyl)-5-oxo-8-(3-(trifluoromethyl)phenyl)-2,3-dihydro-5H-thiazolo[3,2-a]pyridine-3-carboxylic acid]
E. coli CsgA; [2]
  remaining activity at 25 µM: 11 to 31%
E. coli CsgA; [3]
  remaining activity at 25 µM: 27%
E. coli CsgA; [4]
  remaining activity at 100 µM: 11 to 31%
E. coli CsgA; [5]
  remaining activity at 100 µM: 20%
[1]; [7]
  IC50: 4.4 µM
[1]; [9]
  pIC50: 5.35 to 5.89
